We go through one molecule from EP4628074A1, “N-PALMITOYLETHANOLAMIDE FOR USE IN COMBINATION WITH A NON-STEROIDAL ANTI-INFLAMMATORY DRUG IN THE TREATMENT OF INFLAMMATORY PAIN” (priority 2024, dated 2025).

The subject of data set [1] is inflammatory pain induced by CFA. The data set can be described thus: Incapacitance test (spontaneous pain), CFA-induced inflammatory pain, chronic (14 days) oral treatment (Experiment 4). The data set is classed as in vivo, male Sprague-Dawley rats. The conditions noted are these: 2x2 ANOVA on percentage inhibition of spontaneous pain, interaction line = synergy. The protocol:
The inflammatory pain model was induced by injecting Complete Freund's Adjuvant (CFA, Sigma-Aldrich) into the tibiotarsal joint of male Sprague-Dawley rats (Charles River), housed in 26x41 cm cages at the Animal Husbandry Centre. Laboratory Animals (Ce.S.A.L.) of the University of Florence with a 12-hour circadian cycle, water and food (standard diet) "ad libitum", temperature of 23±1°C. Intra-articular injection occurred according to the method described by Butler et al. (Pain 48:73-81,1992) after light anesthesia with 2% isoflurane. The skin surrounding the injection site was sterilized with 75% ethyl alcohol. Then a 28-gauge needle was inserted into the joint cavity, through which a volume of 50 µl of CFA was injected. The animals were then divided into the following treatment groups (N = 8): • Sham (control, a volume of physiological solution equal to that used for CFA animals was injected into the tibiotarsal joint) • Vehicle (CMC 1%) • Diclofenac (3 mg/kg) • Diclofenac (30 mg/kg) • PEA (10 mg/kg) • PEA-OXA (10 mg/kg) [formula] [formula] [formula] [formula]
The tested molecules - used both individually and in combination - were suspended in 1% CMC and administered orally daily from day 1 to day 14 (chronic treatment). […] Behavioral tests were conducted 24 hours after the last administration, in order to highlight the effect of repeated treatment on joint pain. Inflammatory pain induced by CFA injection was measured by paw pressure test. […] The nociceptive threshold has been expressed as the force to which the animal reacts by retracting its paw or vocalizing (Leighton et al., Br J Pharmacol 93:553-560,1988). An analgesimeter (Ugo Basile, Varese) was used for this purpose, which allows the mechanical hyperalgesia to be quantified. Furthermore, spontaneous pain was assessed using the incapacitance test, which evaluates variations in postural balance through the "Incapacitance" device (Linton Instrumentation, UK), a scale which simultaneously, but separately, measures the force imparted by each paw (Fernandes et al., Arthritis Res Ther. 2016 Jan 11;18:7).
Briefly, rats were trained to stand on their hind legs in a box with an inclined plane (65° to the horizontal), placed above the "Incapacity" apparatus. […] The results were expressed in terms of "painful potency", defined as percentage inhibition (mean ± SEM) of inflammatory pain induced by CFA and calculated according to the formula: 100* (treatm-VEIC)/(CTRL-VEIC)."
The effect on pain was analyzed using Generalized Linear Model (GLM) followed by post-hoc analysis based on Tukey-Kramer correction for multiple comparisons. The results of the analyses were expressed as mean ± standard error of the mean (SEM). […]

Data set [2] relates to inflammatory pain induced by sub-plantar injection of carrageenan. The data set can be described thus: Von Frey filaments, inflammatory pain induced by sub-plantar injection of carrageenan (Experiment 3). The data set is classed as in vivo, adult male Sprague-Dawley rats. On the procedure: The experimental inflammatory pain model was induced through a sub-plantar injection of carrageenan (CAR) saline solution (0.1 mL of a 1% suspension of CAR in 0.85% saline). […] The PEA used in this experiment was in unprocessed (native) form. Von Frey filaments were used to evaluate pain, recording for each animal the mechanical tolerance threshold, i.e. the pressure (expressed in grams) endured before retracting the paw. The measurement took place using an analgesimeter (Ugo Basile, Comerio, Varese, Italy) and was conducted before the sub-plantar injection of the CAR and at the time of maximum damage (5 hours later).
The effect on pain was analyzed using Generalized Linear Model (GLM) followed by post-hoc analysis based on Tukey-Kramer correction for multiple comparisons. […] All analyses were performed using SAS software, version 9.4 (SAS Institute, Cary, NC, USA). P value < 0.05 was considered significant.

Data set [3] has as its system collagen-induced arthritis. The data set is described as follows: Arthritis severity score in collagen-induced arthritis (CIA) (Experiment 2). The data set is classed as in vivo, Female Lewis rats. To be noted: PEA 30 mg/kg; for Pr > F: 2x2 factor analysis on severity of arthritis, ibuprofen 5 mg/kg, PEA*IBU = interaction (synergy). The protocol: (§1) Rheumatoid arthritis is a disease characterized by inflammatory pain, in which the involved joints present swelling, stiffness and often erosive processes. Female Lewis rats were maintained on a 12/12 hour light/dark cycle, at constant temperature and humidity and acclimated for 1 week, with free access to water and standard diet. […] Arthritis score, change in paw volume (mL), and change in body weight (g) were measured as indicators of inflammatory pain. Arthritis severity was measured every other day starting on day 25, using the following score: 0 = no sign of arthritis; 1 = swelling and/or redness of the paw or toe; 2 = two joints involved; 3 = more than two joints involved; and 4 = severe arthritis of the entire paw and toes. The arthritis index for each subject was calculated by adding the four scores of the individual paws. The change in paw volume compared to day 21 was assessed every two days by plethysmometry (Ugo Basile) starting from day 25. The change in weight was measured for each animal on day 21 and then every two days starting from day 25.
(§2) The chosen inflammatory pain indicators were analyzed via Generalized Linear Model (GLM) followed by post-hoc analysis based on Tukey-Kramer correction for multiple comparisons. […] All analyzes were performed using SAS software, version 9.4 (SAS Institute, Cary, NC, USA). P value < 0.05 was considered significant.

For data set [4], the system named is collagen-induced arthritis. The data set can be described thus: Body weight change in collagen-induced arthritis (CIA) (Experiment 2). The data set is classed as in vivo, Female Lewis rats. To be noted: PEA 30 mg/kg; for Pr > F: 2x2 factorial analysis on weight change, ibuprofen 5 mg/kg, PEA*IBU = interaction (synergy). On the procedure:
as §1, §2

The conditions of data set [5]: in vivo; cited from earlier work.

Consider `CCCCCCCCCCCCCCCC(=O)NCCO` [PEA, N-palmitoylethanolamide], for which the “Pr > F” value in data set [1] (PEA 5 mg/kg + diclofenac 3 mg/kg compared with diclofenac 3 mg/kg and PEA 10 mg/kg alone) is <0,0001; in data set [1] (PEA 10 mg/kg, diclofenac 3 mg/kg) it was 0,0084; in data set [2] (2x2 factorial analysis on tolerance threshold (Von Frey), native PEA 100 mg/kg, ibuprofen 5 mg/kg, PEA*Ibu = interaction (synergy)), 0,0046; in data set [3] (Giorno 33) it was <0,0001; in data set [3] (Giorno 35), <0,0001; in data set [4] (6° giorno di trattamento (G31)) it was <0,0001. Besides, the “Pr > F” value in data set [4] (8° giorno di trattamento (G33)) and in data set [4] (10° giorno di trattamento (G35)) was <0,0001 each time. In data set [2] (single oral administration 30 minutes before carrageenan, measured 5 hours later, unprocessed (native) PEA 100 mg/kg and/or ibuprofen 5 mg/kg), the “mechanical tolerance threshold compared to the vehicle-treated group” value was “inactive dose”. The “effect on arthritis score” value in data set [3] (day 31 up to end of study (day 35), oral from day 25, low-dose IBU 5 mg/kg, high-dose IBU 30 mg/kg) is “had no effect”. Further, in data set [4] (from the 4th day of treatment (day 29) for the entire observation period, low-dose ibuprofen 5 mg/kg, high-dose IBU 30 mg/kg), the “effect on weight reduction induced by arthritis pain” value is “neither PEA nor low-dose ibuprofen exerted any effect”. Further, the “dose free of acute and sub-chronic toxicity” value in data set [5] is not below 1000 mg/kg daily.
